Laboratory results from US20240059688A1, “CONOLIDINE ANALOGUES AS SELECTIVE ACKR3 MODULATORS FOR THE TREATMENT OF CANCER” (Luxembourg Institute of Health (LIH), priority 2020, published 2024).

Assays:
Type in all cases: cell-based
[1] = target: MOR (Homo sapiens, UniProt P35372); assay: NanoBiT-based β-arrestin-2 recruitment assay, MOR; parameters: expressed in transfected cells; host or cells: U87; settings: concentration range 0.15 nM to 80 μM; reference BAM22
Description: The ability of the different molecules to activate the four opioid receptors MOR, DOR, KOR and NOP that are known to mediate in vivo analgesic effects was tested using the NanoBiT-based β-arrestin-2 recruitment assay in a concentration range of 0.15 nM to 80 μM. For each of these receptors a reference ligand corresponding to an endogenous opioid peptide i.e. Met-enkephalin, BAM22, Dynorphin A and Nociceptin, respectively was included.
(§1) Ligand-induced β-arrestin recruitment to chemokine and opioid receptors was monitored by NanoLuc complementation assay (NanoBiT, Promega). In brief, 1.2×10^6 U87 cells were plated in 10-cm culture dishes and 48 hours later co-transfected with pNBe vectors encoding GPCRs (ACKR3, MOR, DOR, KOR, or NOP) C-terminally tagged with SmBiT and human β-arrestin-1 (arrestin-2) or β-arrestin-2 (arrestin-3) N-terminally fused to LgBiT. 48 hours post-transfection cells were harvested, incubated 25 minutes at 37° C. with Nano-Glo Live Cell substrate diluted 200-fold and distributed into white 96-well plates (5×10^4 cells per well). Ligand-induced, β-arrestin to GPCRs was evaluated with a Mithras LB940 luminometer (Berthold Technologies, running on MicroWin 2010 5.19 software (Mikrotek Laborsysteme)) for 20 minutes.
For concentration-response curves (FIG. 2), the signal recorded with a saturating concentration of full agonist for each receptor was set as 100%. […]

[2] = target: T1, ACKR3 (Homo sapiens, UniProt P25106); assay: ACKR3 β-arrestin recruitment assay (PathHunter, β-galactosidase complementation); settings: for Emax: read-out: ACKR3 β-arrestin % CXCL12 Emax ± SEM; for EC50: stable human ACKR3-β-arrestin-2-CHO cells, mean ± SEM, at least two independent experiments in duplicate
How it was run: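 Agonist mode in PathHunter CHO cells expressing human ACKR3-β-arrestin-2, compounds added in DPBS/1% DMSO for 1.5 hr at 37° C, then detection 1 hr at room temperature, luminescence read. CXCR4 run in C2C12 cells with a 3 hr Cell Plating Reagent 4 preincubation. EC50 and % Emax from three-parameter fits, CXCL-12 as reference agonist; ≥2 independent experiments in duplicate.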
Target sequence in this assay (P25106 whole entry): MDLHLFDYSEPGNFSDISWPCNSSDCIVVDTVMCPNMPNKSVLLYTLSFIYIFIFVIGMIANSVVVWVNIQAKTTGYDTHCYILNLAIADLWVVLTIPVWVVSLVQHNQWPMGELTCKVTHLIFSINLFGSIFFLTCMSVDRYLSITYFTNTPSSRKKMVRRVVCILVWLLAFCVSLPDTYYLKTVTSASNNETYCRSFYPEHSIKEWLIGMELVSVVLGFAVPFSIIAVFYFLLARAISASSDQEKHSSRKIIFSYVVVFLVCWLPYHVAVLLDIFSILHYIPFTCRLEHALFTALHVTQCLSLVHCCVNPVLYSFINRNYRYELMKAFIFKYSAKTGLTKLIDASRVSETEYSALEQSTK

[3] = target: T2, ACKR4 (Homo sapiens, UniProt Q9NPB9); assay: NanoBiT β-arrestin-1 recruitment, receptor selectivity panel, ACKR4; settings: higher concentrations (3 μM, 10 μM); FIG. 3 sections B and C
T2 construct: expressed in transfected cells; host or cells: U87
T2 sequence (Q9NPB9 1-350): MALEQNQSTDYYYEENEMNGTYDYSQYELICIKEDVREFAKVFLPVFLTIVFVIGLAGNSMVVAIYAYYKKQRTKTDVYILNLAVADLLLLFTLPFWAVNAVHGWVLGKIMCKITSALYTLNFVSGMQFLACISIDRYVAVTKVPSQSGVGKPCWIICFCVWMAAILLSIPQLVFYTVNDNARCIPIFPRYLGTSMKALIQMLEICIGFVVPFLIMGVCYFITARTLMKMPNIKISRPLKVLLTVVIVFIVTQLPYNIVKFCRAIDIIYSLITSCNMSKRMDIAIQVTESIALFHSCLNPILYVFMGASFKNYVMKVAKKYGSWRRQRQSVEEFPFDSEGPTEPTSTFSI
Description: To further assess the selectivity profile of the compounds of the invention towards ACKR3, the ability to activate the 21 classical and 4 atypical chemokines receptors and related receptors was tested using the NanoBiT assay based β-arrestin-1 recruitment described previously. The 4 classical opioid receptors described above were also included in the experimental setup. The compounds WW-1 (conolidine) and WW-12 were tested at three different concentrations, 1 μM, 3 μM and 10 μM.
This possible off-target effect was further characterized by comparing the ability of the two molecules to activate receptors ACKR4, CX3CR1 and CCR3 with reference ligands for the receptors, namely CCL19, CX3CL1 and CCL13.
Ligand-induced β-arrestin recruitment to chemokine and opioid receptors was monitored by NanoLuc complementation assay (NanoBiT, Promega). […] Ligand-induced, β-arrestin to GPCRs was evaluated with a Mithras LB940 luminometer (Berthold Technologies, running on MicroWin 2010 5.19 software (Mikrotek Laborsysteme)) for 20 minutes.
For single dose screening experiments on all chemokine receptors(FIG. 3), the results are represented as percentage of signal monitored with 100 nM of one known agonist chemokine listed in the IUPHAR repository of chemokine receptor ligands which was added as positive control.

[4] = target: T1, ACKR3; assay: NanoBiT-based β-arrestin-2 recruitment assay, human ACKR3 in U87 cells; parameters: expressed in transfected cells; host or cells: U87; settings: for agonist efficacy at hACKR3 compared to CXCL-12: NanoBiT β-arrestin recruitment, reference ligand CXCL-12; for EC50: NanoBiT, U87 cells, FIG. 1 section A, read-out: EC50, β-arrestin-2 recruitment to hACKR3
Description: Concentration-response studies were performed with molecules WW-1 (conolidine) and WW-12 on the human and mouse ACKR3 receptors in U87 cells using a NanoBiT-based β-arrestin-2 recruitment assay […] to evaluate their efficacy and potency towards the two receptors.
as §1
Target sequence in this assay (P25106 whole entry): as the sequence (P25106 whole entry) above
Target sequence in this assay (P32121 whole entry partner): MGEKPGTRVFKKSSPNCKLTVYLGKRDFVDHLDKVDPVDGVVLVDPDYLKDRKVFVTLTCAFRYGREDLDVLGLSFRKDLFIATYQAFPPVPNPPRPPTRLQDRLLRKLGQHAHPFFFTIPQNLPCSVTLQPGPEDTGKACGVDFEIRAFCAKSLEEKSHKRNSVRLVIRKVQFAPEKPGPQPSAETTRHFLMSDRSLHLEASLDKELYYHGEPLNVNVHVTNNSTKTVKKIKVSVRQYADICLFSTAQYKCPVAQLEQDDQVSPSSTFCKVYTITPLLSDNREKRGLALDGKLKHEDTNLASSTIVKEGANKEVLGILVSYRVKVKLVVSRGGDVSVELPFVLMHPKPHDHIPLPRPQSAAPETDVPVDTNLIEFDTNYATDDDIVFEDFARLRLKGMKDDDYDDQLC
For concentration-response curves (FIG. 2), the signal recorded with a saturating concentration of full agonist for each receptor was set as 100%. To evaluate the antagonist properties of ligands, full agonists of each receptor (50 nM BAM22 for MOR, 50 nM dynorphin A for KOR, 70 nM met-enkephalin for DOR, 70 nM nociceptin for NOP and 4 nM CXCL12 for ACKR3) were added after the 20-minute incubation with the ligands.

Sequence of MOR (P35372 whole entry): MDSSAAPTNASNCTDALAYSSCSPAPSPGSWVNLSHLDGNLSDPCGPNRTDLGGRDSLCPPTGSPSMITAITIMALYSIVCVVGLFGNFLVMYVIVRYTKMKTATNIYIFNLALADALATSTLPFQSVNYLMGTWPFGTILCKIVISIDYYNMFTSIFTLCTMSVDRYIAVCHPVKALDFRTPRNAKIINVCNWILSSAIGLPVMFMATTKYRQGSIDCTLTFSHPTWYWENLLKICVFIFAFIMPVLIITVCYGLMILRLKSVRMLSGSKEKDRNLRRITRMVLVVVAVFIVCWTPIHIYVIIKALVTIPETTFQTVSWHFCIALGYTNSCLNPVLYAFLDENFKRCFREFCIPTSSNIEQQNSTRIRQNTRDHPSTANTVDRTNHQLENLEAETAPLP

C/C=C1/CN(CCCCC)CC[C@H]1C(=O)c1cc2ccccc2[nH]1 [WW-12, [(3E,4R)-3-ethylidene-1-pentylpiperidin-4-yl](1H-indol-2-yl)methanone]
activation of MOR (β-arrestin-2 recruitment) [1]: not active
Emax [2]: 140 ± 11%
EC50 [2]: 0.353 ± 0.019 µM
activation of ACKR4 (β-arrestin-1 recruitment) in receptor panel [3]: weak activation
agonist efficacy at hACKR3 compared to CXCL-12 [4]: full agonists
EC50 [4]: 0.7 µM

C/C=C1/CN2CC[C@H]1C(=O)c1[nH]c3ccccc3c1C2 [WW-1, (4E,5R)-4-ethylidene-1,4,5,7-tetrahydro-2,5-ethanoazocino[4,3-b]indol-6(3H)-one]
activation of MOR (β-arrestin-2 recruitment) [1]: not active
Emax [2]: 181 ± 4%
EC50 [2]: 27.3 ± 0.44 µM
activation of ACKR4 (β-arrestin-1 recruitment) in receptor panel [3]: weak activation
agonist efficacy at hACKR3 compared to CXCL-12 [4]: full agonists
agonist efficacy at hACKR3 compared to CXCL-12 ([4]; listed as conolidine): full agonist
EC50 [4]: 16.6 µM
